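Step 1: Grow cells in 96-well plates. Step 2: Expose to compound for 48 hours at 5 concentrations. Step 3: Interpolate endpoints linearly; if unreached, use highest concentration. At the GI50, growth is halved.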 The source made the active and inactive calls. No stated cut-off is given here; in the data, active = GI50 up to about 1.1 µM and inactive = higher.
Tests used:
Test in all cases: DTP human tumour cell line panel, 48 h
[1] = tested on: IGROV-1
[2] = tested on: NCI-H226
[3] = tested on: PC-3
[4] = tested on: SN12C
[5] = tested on: KM12
[6] = tested on: NCI/ADR-RES
[7] = tested on: A549
[8] = tested on: MDA-N
[9] = tested on: RXF 393
[10] = tested on: BT-549
[11] = tested on: SK-MEL-2
[12] = tested on: MCF7
[13] = tested on: SNB-19
[14] = tested on: UACC-62
[15] = tested on: HOP-62
[16] = tested on: OVCAR-5
[17] = tested on: HL-60
[18] = tested on: SF-268
[19] = tested on: SNB-75

Measured: GI50

CCC1c2[nH]c3ccccc3c2C[C@H]2C(=O)NC(CCC(=O)OC(C)(C)C)C(=O)N12 (stereo partly specified)
inactive: [1] 53.8 µM | [2] > 100 µM | [3] 33.7 µM | [4] 39.4 µM | [5] 35.1 µM | [6] 62.5 µM | [7] 43 µM | [8] 51.5 µM | [9] 52.7 µM | [10] 53.3 µM | [11] 60.8 µM | [12] 42.4 µM | [13] 73.5 µM | [14] 66.5 µM | [15] 78.5 µM | [16] 62.1 µM | [17] 34 µM | [18] 37.4 µM

NCCNCC1CCNCC1
inactive: [1] > 100 µM | [2] > 100 µM | [3] > 100 µM | [4] > 100 µM | [5] > 100 µM | [6] > 100 µM | [7] > 100 µM | [8] > 100 µM | [9] > 100 µM | [10] > 100 µM | [11] > 100 µM | [12] > 100 µM | [13] > 100 µM | [14] > 100 µM | [15] > 100 µM | [16] > 100 µM | [19] > 100 µM | [18] > 100 µM

N#Cc1c(-c2ccccc2)c(/C=N/c2ccc(Cl)cc2)c(=O)n2c1[nH]c1ccccc12
inactive: [1] > 100 µM | [2] > 100 µM | [3] > 100 µM | [4] 97.7 µM | [5] 54.1 µM | [6] > 100 µM | [7] 83.9 µM | [8] 20.4 µM | [9] > 100 µM | [10] > 100 µM | [11] > 100 µM | [12] > 100 µM | [13] > 100 µM | [15] 73.5 µM | [16] > 100 µM | [19] > 100 µM | [18] > 100 µM

CC(C)(NC(=O)OCc1ccccc1)C(=O)OC(=O)C(C)(C)NC(=O)OCc1ccccc1
active: [18] 0.653 µM
inactive: [1] > 100 µM | [2] > 100 µM | [3] > 100 µM | [4] > 100 µM | [5] > 100 µM | [6] > 100 µM | [7] > 100 µM | [8] 23.6 µM | [10] > 100 µM | [11] > 100 µM | [12] > 100 µM | [13] > 100 µM | [14] 18.3 µM | [15] > 100 µM | [16] > 100 µM | [19] > 100 µM

COc1ccc(C(O)c2ccc3c(c2)OCO3)cc1 (stereo unspecified)
inactive: [1] > 100 µM | [2] > 100 µM | [3] > 100 µM | [4] > 100 µM | [5] > 100 µM | [6] 65.6 µM | [7] > 100 µM | [8] > 100 µM | [9] > 100 µM | [10] > 100 µM | [12] > 100 µM | [13] > 100 µM | [14] > 100 µM | [15] > 100 µM | [16] > 100 µM | [17] > 100 µM | [19] 1.94 µM | [18] > 100 µM

CC(=O)OCc1cc(OC(C)=O)c2cc3c(OC(C)=O)cccc3c(OC(C)=O)c2c1
inactive: [1] 14.5 µM | [2] 23.1 µM | [3] 16.5 µM | [4] 12.2 µM | [6] 17.2 µM | [7] 12.5 µM | [8] 17.1 µM | [10] 20.1 µM | [12] 12.8 µM | [13] 18.3 µM | [14] 13.3 µM | [15] 16.9 µM | [16] 18.8 µM | [17] 9.51 µM | [19] 22.3 µM | [18] 21.2 µM

CCOC(=O)CSc1nc2ccccc2c(=O)n1N
inactive: [1] > 100 µM | [2] > 100 µM | [3] > 100 µM | [4] 63.1 µM | [5] > 100 µM | [6] > 100 µM | [7] 83 µM | [8] > 100 µM | [9] > 100 µM | [10] > 100 µM | [11] > 100 µM | [12] > 100 µM | [13] > 100 µM | [14] > 100 µM | [16] > 100 µM | [19] > 100 µM | [18] > 100 µM

— ChEMBL document CHEMBL1201862, “PubChem BioAssay data set” (2004)
